The text below walks through data of PubChem BioAssay AID248 (DTP/NCI, 2004).

The experiment relates to L1210 leukemia ip in BDF1 mice, survival T/C. The experiment in a line: NCI In Vivo Anticancer Drug Screen. Data for tumor model L1210 Leukemia (intraperitoneal) in B6D2F1 (BDF1) mice. The note with it: endpoint: mean survival time, higher = longer survival. In a few lines: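 Mice bearing the transplanted tumor received compound or vehicle. Survival of the treated group was divided by that of the vehicle-treated control group to give the ratio.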

Setting [1] is: dose: 100.0 mg/kg/injection, schedule: Q01DX009 (ip), vehicle: Klucel (hydroxypropylcellulose) (HPC).
The mark [2] stands for this setting: dose: 200.0 mg/kg/injection, schedule: Q01DX009 (ip), vehicle: Klucel (hydroxypropylcellulose) (HPC).
Where [3] appears, read: dose: 400.0 mg/kg/injection, schedule: Q01DX009 (ip), vehicle: Klucel (hydroxypropylcellulose) (HPC).
The mark [4] stands for this setting: dose: 100.0 mg/kg/injection, schedule: Q04DX002 (ip), vehicle: saline with Tween-80.
Where [5] appears, read: dose: 200.0 mg/kg/injection, schedule: Q04DX002 (ip), vehicle: saline with Tween-80.
The mark [6] stands for this setting: dose: 400.0 mg/kg/injection, schedule: Q04DX002 (ip), vehicle: saline with Tween-80.
Where [7] appears, read: dose: 100.0 mg/kg/injection, schedule: Q04DX002 (ip), vehicle: Klucel (hydroxypropylcellulose) (HPC).
Setting [8] is: dose: 200.0 mg/kg/injection, schedule: Q04DX002 (ip), vehicle: Klucel (hydroxypropylcellulose) (HPC).
Setting [9] is: dose: 400.0 mg/kg/injection, schedule: Q04DX002 (ip), vehicle: Klucel (hydroxypropylcellulose) (HPC).
Setting [10] is: dose: 100.0 mg/kg/injection, schedule: Q01DX009 (ip), vehicle: saline with Tween-80.
The mark [11] stands for this setting: dose: 100.0 mg/kg/injection, schedule: Q04DX003 (ip), vehicle: saline with Tween-80.
The mark [12] stands for this setting: dose: 200.0 mg/kg/injection, schedule: Q01DX009 (ip), vehicle: saline with Tween-80.
Setting [13] is: dose: 200.0 mg/kg/injection, schedule: Q04DX003 (ip), vehicle: saline with Tween-80.
Setting [14] is: dose: 400.0 mg/kg/injection, schedule: Q01DX009 (ip), vehicle: saline with Tween-80.
Where [15] appears, read: dose: 400.0 mg/kg/injection, schedule: Q04DX003 (ip), vehicle: saline with Tween-80.
[16] abbreviates: dose: 100.0 mg/kg/injection, schedule: Q04DX003 (ip), vehicle: Klucel (hydroxypropylcellulose) (HPC).
Where [17] appears, read: dose: 200.0 mg/kg/injection, schedule: Q04DX003 (ip), vehicle: Klucel (hydroxypropylcellulose) (HPC).
Where [18] appears, read: dose: 400.0 mg/kg/injection, schedule: Q04DX003 (ip), vehicle: Klucel (hydroxypropylcellulose) (HPC).

Where “and” joins values, the source holds several entries; their conditions need not be identical. Equal entries are not always repeated. Inconclusive results and toxic doses are left out.

Regarding `CCOc1cc(/C=N\N=C\c2ccc(O)c(OCC)c2)ccc1O`, the T/C runs as follows: under setting [1], 93 % of control; under setting [2], 94 % of control; under setting [3], 88 % of control.

Consider `c1ccc(C[N+]23CCC(CC2)CC3)cc1`, for which the T/C (dose: 3.13 mg/kg/injection, schedule: Q01DX009 (ip), vehicle: saline) is 95 % of control; the T/C (dose: 6.25 mg/kg/injection, schedule: Q01DX009 (ip), vehicle: saline) is 99 % of control; the T/C (dose: 12.5 mg/kg/injection, schedule: Q01DX009 (ip), vehicle: saline) is 101 % of control.

Turning to `CN(Cc1cnc2nc(N)nc(N)c2n1)c1ccc(C(=O)NC(CCC(=O)O)C(=O)O)cc1[N+](=O)[O-]` (centres undefined), the T/C was 155 % of control (dose: 2.5 mg/kg/injection, schedule: Q01DX009 (ip), vehicle: sodium bicarbonate); 112 % of control (dose: 5.0 mg/kg/injection, schedule: Q01DX009 (ip), vehicle: sodium bicarbonate); 90 % of control (dose: 10.0 mg/kg/injection, schedule: Q01DX009 (ip), vehicle: sodium bicarbonate).

Take `NC(CO)CO`: the T/C (dose: 100.0 mg/kg/injection, schedule: Q04DX002 (ip), vehicle: saline) was 105 % of control; the T/C (dose: 200.0 mg/kg/injection, schedule: Q04DX002 (ip), vehicle: saline) is 108 % of control; the T/C (dose: 400.0 mg/kg/injection, schedule: Q04DX002 (ip), vehicle: saline) was 105 % of control.

On to `NCC(=O)N/C(=C/c1ccccc1)C(=O)NCC(=O)O`, for which the T/C by setting is: under setting [4], 97 % of control; under setting [5], 97 % of control; under setting [6], 97 % of control.

For the molecule `Cc1cnc(NS(=O)(=O)c2ccc(N)cc2)nc1-c1ccccc1O`, the T/C under setting [7] was 98 % of control, the T/C under setting [8] was 98 % of control and the T/C under setting [9] is 91 % of control.

Take `CCCC(CCC)OC(=O)C(O)c1ccccc1` (centres undefined): the T/C reads like this: (dose: 100.0 mg/kg/injection, schedule: Q01DX001 (ip), vehicle: acetone) 94 % of control; (dose: 200.0 mg/kg/injection, schedule: Q01DX001 (ip), vehicle: acetone) 94 % of control; (dose: 400.0 mg/kg/injection, schedule: Q01DX001 (ip), vehicle: acetone) 100 % of control.

With `CCCCCCCCCCCCCCCCCCNC(=O)NCCc1ccccc1`, the T/C reads like this: under setting [7], 105 % of control; under setting [8], 99 % of control; under setting [9], 92 % of control.

`CC(=O)Cc1cc(C)nc(NC#N)n1`: the T/C under setting [7] is 102 % of control and the T/C under setting [8] was 98 % of control.

Take `Cc1ccc(S(=O)(=O)OCC2OC(n3cnc4c(N)ncnc43)C(OS(=O)(=O)c3ccc(C)cc3)C2N=[N+]=[N-])cc1` (centres undefined): the T/C (dose: 100.0 mg/kg/injection, schedule: Q01DX005 (ip), vehicle: saline) is 106 % of control and the T/C (dose: 200.0 mg/kg/injection, schedule: Q01DX005 (ip), vehicle: saline) was 92 % of control.

For the molecule `CN(c1ccccc1)S(=O)(=O)c1ccccc1`, the T/C is, setting by setting: under setting [10], 100 % of control; under setting [11], 97 % of control; under setting [12], 106 % of control; under setting [13], 97 % of control; under setting [14], 90 % of control; under setting [15], 92 % of control.

Turning to `CC(OC(=O)c1ccccc1C(=O)O)c1ccccc1` (centres undefined), the T/C by setting is: (dose: 100.0 mg/kg/injection, schedule: Q01DX001 (ip), vehicle: carboxymethylcellulose (CMC)) 93 % of control; (dose: 200.0 mg/kg/injection, schedule: Q01DX001 (ip), vehicle: carboxymethylcellulose (CMC)) 96 % of control; (dose: 400.0 mg/kg/injection, schedule: Q01DX001 (ip), vehicle: carboxymethylcellulose (CMC)) 96 % of control.

Take `Cc1ccc2c(Br)cc(Br)c(O)c2n1`: the T/C reads like this: (dose: 25.0 mg/kg/injection, schedule: Q01DX009 (ip), vehicle: Klucel (hydroxypropylcellulose) (HPC)) 94 % of control; (dose: 50.0 mg/kg/injection, schedule: Q01DX009 (ip), vehicle: Klucel (hydroxypropylcellulose) (HPC)) 96 % of control; under setting [1], 97 % of control and 89 % of control; under setting [16], 97 % of control; under setting [17], 112 % of control; under setting [18], 98 % of control.

Consider `CCOC(=O)c1cc(=O)n(-c2ccc([N+](=O)[O-])cc2)n1C`, for which the T/C under setting [11] was 94 % of control, the T/C under setting [13] is 92 % of control and the T/C under setting [15] was 94 % of control.

For `C/[N+]([O-])=N\Nc1c(Br)cc(Br)cc1Br`, the T/C (dose: 50.0 mg/kg/injection, schedule: Q01DX009 (ip), vehicle: saline with Tween-80) was 105 % of control; the T/C under setting [10] was 102 % of control; the T/C under setting [12] is 105 % of control.

Consider `CC(=O)[O][Hg][c]1cc[c]([Hg][O]C(C)=O)s1`, for which the T/C reads like this: (dose: 3.0 mg/kg/injection, schedule: Q01DX009 (ip), vehicle: Klucel (hydroxypropylcellulose) (HPC)) 91 % of control; (dose: 6.0 mg/kg/injection, schedule: Q01DX009 (ip), vehicle: Klucel (hydroxypropylcellulose) (HPC)) 89 % of control; (dose: 12.5 mg/kg/injection, schedule: Q04DX003 (ip), vehicle: Klucel (hydroxypropylcellulose) (HPC)) 100 % of control.

`CN(CCNC(=O)C1C(c2ccccc2)C1c1ccccc1)C(=O)C1C(c2ccccc2)C1c1ccccc1` (centres undefined): the T/C reads like this: under setting [7], 95 % of control; under setting [8], 89 % of control; under setting [9], 89 % of control.

Regarding `Cc1ccnc([N+](=O)[O-])c1`, the T/C under setting [10] was 103 % of control, the T/C under setting [12] was 92 % of control and the T/C under setting [14] is 106 % of control.

`Nc1nc(N)c(CCCOc2ccccc2)c(-c2ccccc2)n1`: the T/C under setting [7] is 105 % of control, the T/C under setting [8] was 101 % of control and the T/C under setting [9] is 101 % of control.

Take `CCCCC(O)CCC` (centres undefined): the T/C runs as follows: under setting [1], 96 % of control; under setting [10], 98 % of control; under setting [16], 98 % of control; under setting [11], 100 % of control; under setting [2], 107 % of control; under setting [12], 95 % of control. The T/C reads like this: under setting [17], 93 % of control; under setting [13], 98 % of control; under setting [3], 95 % of control; under setting [14], 91 % of control; under setting [18], 93 % of control; under setting [15], 98 % of control.

Turning to `O=C(NCCCCCCCCCCCCNC(=O)Nc1ccc(C2=NCC(O)CN2)cc1)Nc1ccc(C2=NCC(O)CN2)cc1` (centres undefined), the T/C runs as follows: (dose: 62.5 mg/kg/injection, schedule: Q01DX Z (ip), vehicle: carboxymethylcellulose (CMC)) 113 % of control; (dose: 250.0 mg/kg/injection, schedule: Q01DX Z (ip), vehicle: carboxymethylcellulose (CMC)) 122 % of control.

Turning to `Nc1cc(Cl)ccc1Oc1ccc(Cl)cc1`, the T/C is, setting by setting: (dose: 37.5 mg/kg/injection, schedule: Q01DX009 (ip), vehicle: Klucel (hydroxypropylcellulose) (HPC)) 103 % of control; (dose: 75.0 mg/kg/injection, schedule: Q01DX009 (ip), vehicle: Klucel (hydroxypropylcellulose) (HPC)) 98 % of control; (dose: 150.0 mg/kg/injection, schedule: Q01DX009 (ip), vehicle: Klucel (hydroxypropylcellulose) (HPC)) 95 % of control.

In the case of `Cc1c(N)c(C)c(F)c(-c2c(N)c(C)c(N)c(C)c2F)c1N`, the T/C is, setting by setting: (dose: 100.0 mg/kg/injection, schedule: Q01DX001 (ip), vehicle: Klucel (hydroxypropylcellulose) (HPC)) 92 % of control; (dose: 200.0 mg/kg/injection, schedule: Q01DX001 (ip), vehicle: Klucel (hydroxypropylcellulose) (HPC)) 97 % of control; (dose: 400.0 mg/kg/injection, schedule: Q01DX001 (ip), vehicle: Klucel (hydroxypropylcellulose) (HPC)) 104 % of control.

As for `COc1ccc(N=Cc2ccc(OC(=O)c3ccccc3)c(OC)c2)cc1`, the T/C is, setting by setting: under setting [4], 100 % of control; under setting [5], 100 % of control; under setting [6], 93 % of control.
